Results: BigSolDB 2.1

Cc1cnc(NC(=O)C2=C(O)c3ccccc3S(=O)(=O)N2C)s1
Settings	solubility (mole fraction)
in PEG-400, 298.15 K	0.00932
in PEG-400, 303.15 K	0.0096
in PEG-400, 308.15 K	0.0101
in PEG-400, 313.15 K	0.0104
in PEG-400, 318.15 K	0.0106

in water
Settings	solubility (mole fraction)
298.15 K	4.24e-07
303.15 K	6.28e-07
308.15 K	9.48e-07
313.15 K	1.34e-06
318.15 K	1.93e-06
